From patent US20080317723A1, “LYMPHATIC ENDOTHELIAL CELLS MATERIALS AND METHODS” (VEGENICS LIMITED, priority 2001, published 2008)
Entries after “also recorded” stand apart in the source; their conditions may differ.

Assays:
CREB = CREB Ser133 phosphorylation in HMVE cells, Western blot; format: cell-based, human; conditions: HMVE cells
Description: (§1) Western blot analysis. Endothelial cells were cultured on 35 mm dishes to near confluence, starved for 24 h in serum free medium and stimulated as indicated. Wortmannin ([…]), LY294002 ([…]), PD98059 (10-25 μM) or GF109203X (2.5-5 μM) were added 1-3 h before stimulation, where indicated. DMSO, into which the inhibitors were dissolved, was used as a control. After the stimulation, the cells were lysed in lysis buffer (50 mM HEPES, pH 7.5, 150 mM NaCl, 10 mM EDTA, 100 mM NaF, 1% TritonX-100 supplemented with 2 mM Na3VO4, 0.5 mM PMSF, 100 U/ml approtinin and 10 μg/ml leupeptin). Clarified lysates were separated by SDS-PAGE, transferred to nitrocellulose and immunoblotted using the phosphospecific antibodies for Akt-Ser473, Akt-Thr308, p42/44 MAPK-Thr202/Tyr204 or CREB-Ser133. The bound antibodies were detected using horseradish peroxidase conjugated secondary antibodies and enhanced chemiluminescence detection system. The blots were stripped and reprobed with antibodies against Akt, MAPK or CREB for quantification by reading the optical densities of the signals with Multi-Analyst 2.0.1 program (Bio-Rad).
(§2) The p42/p44 MAPK activation was detected by Western blotting using phospho-Thr202/Tyr204-MAPK specific antibodies and CREB phosphorylation using phospho-Ser133 specific antibodies. The growth factor concentrations used were: VEGF 10 ng/ml, VEGF-C 100 ng/ml and VEGF-C156S 500 ng/ml. […] Effects of inhibition of protein kinase C by GF109203X, MEK1 by PD98059 and PI-3 kinase by LY294002 on p42/p44 MAPK Thr202/Tyr204 phosphorylation, CREB Ser133 phosphorylation and Akt Ser473 phosphorylation in HMVE cells. The growth factor concentrations used were: VEGF 1 ng/ml, VEGF-C 10 ng/ml and VEGF-C156S 500 ng/ml

p42/p44 MAPK = p42/p44 MAPK Thr202/Tyr204 phosphorylation in HMVE cells, Western blot; format: cell-based, human; conditions: minimum growth factor concentrations giving maximal activation
Description: as §1, §2

mVEGFR-2 = mVEGFR-2 (Mus musculus, UniProt P35918); conditions: mVEGFR-2, monovalent; reference: Baldwin et al. 2001; cited from earlier work
mVEGFR-2, sequence (P35918 20-1345): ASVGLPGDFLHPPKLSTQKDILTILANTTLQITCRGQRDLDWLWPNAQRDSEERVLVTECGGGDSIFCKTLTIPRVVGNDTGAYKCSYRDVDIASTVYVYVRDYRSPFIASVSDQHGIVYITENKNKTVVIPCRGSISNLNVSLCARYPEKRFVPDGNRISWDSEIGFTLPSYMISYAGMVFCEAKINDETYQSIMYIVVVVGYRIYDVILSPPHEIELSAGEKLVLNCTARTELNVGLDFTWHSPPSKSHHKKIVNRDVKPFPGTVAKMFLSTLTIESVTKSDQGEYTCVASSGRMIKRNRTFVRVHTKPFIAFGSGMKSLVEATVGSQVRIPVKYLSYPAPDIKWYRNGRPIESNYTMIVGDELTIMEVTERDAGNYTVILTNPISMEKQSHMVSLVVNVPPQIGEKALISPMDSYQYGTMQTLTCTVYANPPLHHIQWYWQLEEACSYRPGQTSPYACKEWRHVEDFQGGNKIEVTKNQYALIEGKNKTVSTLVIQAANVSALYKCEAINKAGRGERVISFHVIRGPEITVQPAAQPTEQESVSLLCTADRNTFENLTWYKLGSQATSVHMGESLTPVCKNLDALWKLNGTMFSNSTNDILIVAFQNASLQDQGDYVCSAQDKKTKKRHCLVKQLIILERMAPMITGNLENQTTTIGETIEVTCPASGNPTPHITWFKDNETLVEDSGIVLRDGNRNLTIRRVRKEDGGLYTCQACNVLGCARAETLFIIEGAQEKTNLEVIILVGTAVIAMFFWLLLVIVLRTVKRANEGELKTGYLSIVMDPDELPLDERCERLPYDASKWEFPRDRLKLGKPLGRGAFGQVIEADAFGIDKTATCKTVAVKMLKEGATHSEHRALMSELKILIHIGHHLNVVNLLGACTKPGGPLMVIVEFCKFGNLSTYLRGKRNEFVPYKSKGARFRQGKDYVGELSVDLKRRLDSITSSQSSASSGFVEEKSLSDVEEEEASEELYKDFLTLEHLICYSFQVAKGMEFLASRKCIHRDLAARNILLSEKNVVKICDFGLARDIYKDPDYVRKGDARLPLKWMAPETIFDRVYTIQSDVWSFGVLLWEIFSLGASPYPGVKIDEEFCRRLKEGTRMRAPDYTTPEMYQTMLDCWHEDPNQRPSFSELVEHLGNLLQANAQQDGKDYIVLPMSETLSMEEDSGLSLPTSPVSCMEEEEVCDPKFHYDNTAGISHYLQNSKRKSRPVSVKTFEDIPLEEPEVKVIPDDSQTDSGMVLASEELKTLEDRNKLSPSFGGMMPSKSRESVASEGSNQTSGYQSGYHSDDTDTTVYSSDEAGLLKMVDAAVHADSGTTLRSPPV

mVEGFR-3 = mVEGFR-3 (Mus musculus, UniProt P35917); conditions: reference: Baldwin et al. 2001; cited from earlier work
mVEGFR-3, sequence (P35917 25-1363): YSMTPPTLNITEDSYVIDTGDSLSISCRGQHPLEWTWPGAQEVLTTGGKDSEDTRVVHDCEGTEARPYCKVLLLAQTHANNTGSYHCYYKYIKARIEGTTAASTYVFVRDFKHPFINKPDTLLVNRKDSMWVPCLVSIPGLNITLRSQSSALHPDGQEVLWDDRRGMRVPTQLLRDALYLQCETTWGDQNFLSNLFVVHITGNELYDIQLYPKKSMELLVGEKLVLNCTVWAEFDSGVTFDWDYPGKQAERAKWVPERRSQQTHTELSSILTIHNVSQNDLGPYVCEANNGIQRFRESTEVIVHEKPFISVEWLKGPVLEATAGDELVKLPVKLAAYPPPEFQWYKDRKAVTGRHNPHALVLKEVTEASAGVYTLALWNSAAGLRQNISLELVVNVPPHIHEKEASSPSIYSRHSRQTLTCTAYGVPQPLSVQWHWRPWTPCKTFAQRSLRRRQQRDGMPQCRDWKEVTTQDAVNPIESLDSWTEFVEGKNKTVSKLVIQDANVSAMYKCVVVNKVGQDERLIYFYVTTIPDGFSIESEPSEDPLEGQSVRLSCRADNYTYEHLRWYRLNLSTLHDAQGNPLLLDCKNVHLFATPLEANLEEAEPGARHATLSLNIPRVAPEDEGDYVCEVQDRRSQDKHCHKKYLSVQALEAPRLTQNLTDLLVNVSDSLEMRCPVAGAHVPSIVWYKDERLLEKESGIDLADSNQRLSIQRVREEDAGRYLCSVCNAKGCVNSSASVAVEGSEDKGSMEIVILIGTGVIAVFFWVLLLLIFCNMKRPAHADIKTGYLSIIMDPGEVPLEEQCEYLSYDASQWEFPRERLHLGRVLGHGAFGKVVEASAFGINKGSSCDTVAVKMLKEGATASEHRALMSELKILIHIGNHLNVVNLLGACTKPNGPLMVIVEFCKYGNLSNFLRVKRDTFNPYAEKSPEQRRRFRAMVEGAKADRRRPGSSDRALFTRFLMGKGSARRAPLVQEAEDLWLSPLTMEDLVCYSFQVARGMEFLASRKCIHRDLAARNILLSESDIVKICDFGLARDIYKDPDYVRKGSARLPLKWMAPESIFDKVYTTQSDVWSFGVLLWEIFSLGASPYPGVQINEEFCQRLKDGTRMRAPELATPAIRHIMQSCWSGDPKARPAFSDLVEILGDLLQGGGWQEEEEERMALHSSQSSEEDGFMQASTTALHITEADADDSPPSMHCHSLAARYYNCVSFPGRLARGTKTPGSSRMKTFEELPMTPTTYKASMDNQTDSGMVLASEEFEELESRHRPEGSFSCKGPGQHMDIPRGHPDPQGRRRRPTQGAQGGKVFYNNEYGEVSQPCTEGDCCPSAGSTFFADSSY

COc1cccc(-c2cc(=O)c3ccccc3o2)c1N [PD98059]
effect of inhibitor on VEGF induced CREB phosphorylation (CREB): but not VEGF induced CREB phosphorylation; also recorded: did not inhibit VEGF induced CREB phosphorylation
effect of inhibitor on VEGF-C induced CREB phosphorylation (CREB): inhibited VEGFC; also recorded: decreased phosphorylation of CREB upon VEGFC stimulation

N#CC(=C(/N)Sc1ccccc1N)/C(C#N)=C(\N)Sc1ccccc1N [U0126]
effect of inhibitor on VEGF induced CREB phosphorylation (CREB): but not VEGF induced CREB phosphorylation
effect of inhibitor on VEGF-C induced CREB phosphorylation (CREB): inhibited VEGFC

CN(C)CCCn1cc(C2=C(c3c[nH]c4ccccc34)C(=O)NC2=O)c2ccccc21 [GF109203X, Bisindolylmaleimide I]
effect of inhibitor on VEGF induced CREB phosphorylation (CREB): completely blocked
effect of inhibitor on VEGF-C induced CREB phosphorylation (CREB): completely blocked
effect on p42/44 MAPK phosphorylation induced by VEGF, VEGF-C or VEGF-C156S (p42/p44 MAPK): completely blocked

B1: mVEGF-D: mature form of mouse VEGF-D, data from Baldwin et al. 2001 (protein, UniProt P97946 94-210, looked up)
Vascular endothelial growth …: FAATFYDTETLKVIDEEWQRTQCSPRETCVEVASELGKTTNTFFKPPCVNVFRCGGCCNEEGVMCMNTSTSYISKQLFEISVPLTSVPELVPVKIANHTGCKCLPTGPRHPYSIIRR
KD (mVEGFR-2): no binding
Ka (mVEGFR-2): no binding
Kd (mVEGFR-2): no binding
Ka (mVEGFR-3): 8000 M⁻¹ s⁻¹
